Reference: patent US7883715B2, “Pesticide compositions containing dicarboxylic acids” (Monsanto Technology LLC, priority 2002, dated 2011)
Read-outs that look alike come from different tables or passages of the source.

How the values were obtained:
TRZVX = experiment: Greenhouse herbicidal effectiveness, TRZVX; format: in vivo, wheat; settings: Table 19A, 16 days after treatment
Description: (§1) The following greenhouse testing procedure was used for evaluating compositions of the Examples to determine herbicidal effectiveness, except where otherwise indicated.
(§2) Seeds of the plant species indicated were planted in 88 mm square pots in a soil mix which was previously sterilized and prefertilized with a 14-14-14 NPK slow release fertilizer at a rate of 3.6 kg/m3. The pots were placed in a greenhouse with sub-irrigation. About one week after emergence, seedlings were thinned as needed, including removal of any unhealthy or abnormal plants, to create a uniform series of test pots.
(§3) The plants were maintained for the duration of the test in the greenhouse where they received a minimum of 14 hours of light per day. […] Exposure temperatures were not precisely controlled but averaged about 29° C. during the day and about 21° C. during the night. Plants were sub-irrigated throughout the test to ensure adequate soil moisture levels.
(§4) Pots were assigned to different treatments in a fully randomized experimental design with 6 replications. A set of pots was left untreated as a reference against which affects of the treatments could later be evaluated.
(§5) Application of glyphosate compositions was made by spraying with a track sprayer fitted with a 9501E nozzle calibrated to deliver a spray volume of 93 liters per hectare (l/ha) at a pressure of 165 kilopascals (kPa). After treatment, pots were returned to the greenhouse until ready for evaluation.
(§6) Treatments were made using dilute aqueous compositions. These could be prepared as spray compositions directly from their ingredients, or by dilution with water of preformulated concentrate compositions.
(§7) For evaluation of herbicidal effectiveness, all plants in the test were examined by a single practiced technician, who recorded percent control, a visual measurement of the effectiveness of each treatment by comparison with untreated plants. […] The reported % control values represent the average for all replicates of each treatment.

ECHCF = experiment: Greenhouse herbicidal effectiveness, ECHCF; format: in vivo, Japanese millet, barnyardgrass; settings: Table 19A, 16 days after treatment
Description: as §1, §2, §3, §4, §5, §6, §7

ABUTH = experiment: Greenhouse herbicidal effectiveness, ABUTH; format: in vivo, velvetleaf; settings: for efficacy ABUTH: Table 19A, 16 days after treatment; for inhibition at 2 g/ha / inhibition at 3 g/ha / inhibition at 4 g/ha / inhibition at 5 g/ha: Abutilon theophrasti
Description: as §1, §2, §3, §4, §5, §6, §7

EPSPS enzyme = target: T1, EPSPS enzyme (Escherichia coli, UniProt P0A6D3); experiment: Enzyme studies of EPSPS inhibition; format: biochemical; settings: oxalic acid without glyphosate
T1 sequence (P0A6D3 1-427): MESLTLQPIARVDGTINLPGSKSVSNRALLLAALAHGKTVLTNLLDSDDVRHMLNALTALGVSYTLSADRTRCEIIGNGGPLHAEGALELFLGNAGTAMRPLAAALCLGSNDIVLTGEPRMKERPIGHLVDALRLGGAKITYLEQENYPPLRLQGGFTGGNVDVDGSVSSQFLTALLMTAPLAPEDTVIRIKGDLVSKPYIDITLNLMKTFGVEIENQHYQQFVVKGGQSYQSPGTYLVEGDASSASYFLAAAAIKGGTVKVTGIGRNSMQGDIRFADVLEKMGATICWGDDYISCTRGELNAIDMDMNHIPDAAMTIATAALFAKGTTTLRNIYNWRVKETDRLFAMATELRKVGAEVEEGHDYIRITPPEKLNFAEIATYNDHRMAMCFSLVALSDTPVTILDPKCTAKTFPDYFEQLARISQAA
Description: It has been discovered that oxalic acid and derivatives thereof enhance the pesticidal activity of a pesticide by acting as either an allosteric or cooperative effecter of the inhibition of the target enzyme 5-enolpyruvylishikimate-3-phosphate synthase (hereinafter referred to as EPSP synthase or EPSPS). For example, oxalic acid increases the inhibition of EPSPS enzyme by glyphosate to enhance the physiological response of plants at the enzyme level. […] In other words, the oxalic acid is absorbed and systemically transported throughout the plant.
Glyphosate inhibits the shikimic acid pathway which leads to the biosynthesis of aromatic compounds including amino acids, plant hormones and vitamins. Specifically, glyphosate curbs the conversion of phosphoenolpyruvic acid (PEP) and 3-phosphoshikimic acid to 5-enolpyruvyl-3-phosphoshikimic acid by inhibiting the EPSPS enzyme. It is believed that oxalic acid and other dicarboxylic acids enhance the binding efficiency of glyphosate to the S3P-EPSPS complex, resulting in a whole plant response to the oxalate at a given glyphosate concentration. […] This would lower the Kd of the S3P-EPSPS-glyphosate ternary complex. Data reported in the literature from x-ray crystallography have clearly identified the 427 amino acid side chains. […]

plants = experiment: Whole plant response to oxalic acid by itself; format: in vivo; settings: enzyme studies and whole plant response
Description: Glyphosate inhibits the shikimic acid pathway which leads to the biosynthesis of aromatic compounds including amino acids, plant hormones and vitamins. Specifically, glyphosate curbs the conversion of phosphoenolpyruvic acid (PEP) and 3-phosphoshikimic acid to 5-enolpyruvyl-3-phosphoshikimic acid by inhibiting the EPSPS enzyme. It is believed that oxalic acid and other dicarboxylic acids enhance the binding efficiency of glyphosate to the S3P-EPSPS complex, resulting in a whole plant response to the oxalate at a given glyphosate concentration. […] This would lower the Kd of the S3P-EPSPS-glyphosate ternary complex. Data reported in the literature from x-ray crystallography have clearly identified the 427 amino acid side chains. Each of the six α-helices in the top domain and four of the six α-helices in the lower domain are capped with basic amino acid residues. Electrostatic interaction of a dicarboxylic acid or other compound of the proper stearic requirement with these basic amino acid residues on the surface of the two domains of the enzyme are believed to produce a stapling action. Such stapling action is possible only on at least a partially closed conformation of the ternary complex of S3P-EPSPS-glyphosate. […] Any compound with stapling action to close the ternary complex tighter, thereby enhancing the inhibition of the enzyme is a suitable enhancer component of the invention.

[1] = 1 g a.e./ha, tank mix OTH1 1 % v/v
[2] = 3 g a.e./ha, tank mix OTH1 1 % v/v
[3] = 5 g a.e./ha, tank mix OTH1 1 % v/v
[4] = 10 g a.e./ha, tank mix OTH1 1 % v/v

## COc1cc(OC)nc(NC(=O)NS(=O)(=O)c2ncccc2C(=O)N(C)C)n1 [nicosulfuron]
TRZVX; 1 g a.e./ha, no OTH1
  efficacy TRZVX: 5
TRZVX; [1]
  efficacy TRZVX: 3
TRZVX; 3 g a.e./ha, no OTH1
  efficacy TRZVX: 15
TRZVX; [2]
  efficacy TRZVX: 25
TRZVX; 5 g a.e./ha, no OTH1
  efficacy TRZVX: 50
TRZVX; [3]
  efficacy TRZVX: 47
TRZVX; 10 g a.e./ha, no OTH1
  efficacy TRZVX: 65
TRZVX; [4]
  efficacy TRZVX: 67
ECHCF; 1 g a.e./ha, no OTH1
  efficacy ECHCF: 0.8
ECHCF; [1]
  efficacy ECHCF: 4
ECHCF; 3 g a.e./ha, no OTH1
  efficacy ECHCF: 13
ECHCF; [2]
  efficacy ECHCF: 10
ECHCF; 5 g a.e./ha, no OTH1
  efficacy ECHCF: 40
ECHCF; [3]
  efficacy ECHCF: 37
ECHCF; 10 g a.e./ha, no OTH1
  efficacy ECHCF: 51
ECHCF; [4]
  efficacy ECHCF: 42
ABUTH; 1 g a.e./ha, no OTH1
  efficacy ABUTH: 0.8
ABUTH; [1]
  efficacy ABUTH: 6
ABUTH; 3 g a.e./ha, no OTH1
  efficacy ABUTH: 12
ABUTH; [2]
  efficacy ABUTH: 8
ABUTH; 5 g a.e./ha, no OTH1
  efficacy ABUTH: 14
ABUTH; [3]
  efficacy ABUTH: 10
ABUTH; 10 g a.e./ha, no OTH1
  efficacy ABUTH: 28
ABUTH; [4]
  efficacy ABUTH: 58

## O=C(O)C(=O)O [oxalic acid, Oxalic Acid]
EPSPS enzyme
  inhibitory effect on the EPSPS enzyme per se: do not have any inhibitory effect on the enzyme per se
plants
  herbicidal property by itself: does not have any herbicidal property
ABUTH; 336 h, read-out: % inhibition ABUTH (14 DAT), oxalate/oxalic acid alone, 2 g a.e./ha, 14 DAT, Table 44A
  inhibition at 2 g/ha: 0%
ABUTH; 336 h, read-out: % inhibition ABUTH (14 DAT), oxalate/oxalic acid alone, 3 g a.e./ha, 14 DAT, Table 44A
  inhibition at 3 g/ha: 0%
ABUTH; 336 h, read-out: % inhibition ABUTH (14 DAT), oxalate/oxalic acid alone, 4 g a.e./ha, 14 DAT, Table 44A
  inhibition at 4 g/ha: 0%
ABUTH; 336 h, read-out: % inhibition ABUTH (14 DAT), oxalate/oxalic acid alone, 5 g a.e./ha, 14 DAT, Table 44A
  inhibition at 5 g/ha: 0%
ABUTH; 480 h, read-out: % inhibition ABUTH (20 DAT), oxalate/oxalic acid alone, 2 g a.e./ha, 20 DAT, Table 44A
  inhibition at 2 g/ha: 0%
ABUTH; 480 h, read-out: % inhibition ABUTH (20 DAT), oxalate/oxalic acid alone, 3 g a.e./ha, 20 DAT, Table 44A
  inhibition at 3 g/ha: 0%
ABUTH; 480 h, read-out: % inhibition ABUTH (20 DAT), oxalate/oxalic acid alone, 4 g a.e./ha, 20 DAT, Table 44A
  inhibition at 4 g/ha: 0%
ABUTH; 480 h, read-out: % inhibition ABUTH (20 DAT), oxalate/oxalic acid alone, 5 g a.e./ha, 20 DAT, Table 44A
  inhibition at 5 g/ha: 0%
